Read-outs that look alike come from different tables or passages of the source.
What was measured:
[1] = octanol/water; cited from earlier work
[2] = Miscibility with water and lipophilic cosmetic solvents (Neutralöl, Paraffinöl); format: physicochemical; conditions: for Löslichkeit + Neutralöl auf: 2,5 g: 0,1 g PKR made up with Neutralöl to 2,5 g; for Löslichkeit + Neutralöl auf: 5 g: 0,1 g PKR made up with Neutralöl to 5 g; for Löslichkeit + Neutralöl auf: 10 g: 0,1 g PKR made up with Neutralöl to 10 g; for Löslichkeit + Paraffinöl auf: 5 g: 0,1 g PKR made up with Paraffinöl to 5 g; for Löslichkeit + Paraffinöl auf: 10 g: 0,1 g PKR made up with Paraffinöl to 10 g; for Löslichkeit + Wasser auf: 10 g: 0,1 g PKR made up with water to 10 g; for Löslichkeit + Wasser auf: 20 g: 0,1 g PKR made up with water to 20 g; on Löslichkeit + Neutralöl auf: 10 g: key: +: klare Lösung; -: Zweiphasengemisch; on Löslichkeit + Neutralöl auf: 2,5 g: key: +: klare Lösung; -: Zweiphasengemisch; on Löslichkeit + Neutralöl auf: 5 g: key: +: klare Lösung; -: Zweiphasengemisch
Description: Mischungen aus 40 Gew.-% Kühlreagenz (a) und jeweils 60 bzw. 50 Gew.-% Alkohol (b) wurden gemäß Beispiel 1 erzeugt bzw. mit 10 Gew.-% Wasser versetzt.
Anschließend wurde alternativ mit Wasser, Neutralöl oder Paraffinöl versetzt.

[3] = cited from earlier work

CC(O)CO (stereo not shown) [1,2-Propandiol]
log Kow [1]: -0,90

CNC(=O)C(C)(C(C)C)C(C)C [WS-23, 2-Isopropyl-N,2,3-trimethylbutanamid]
Löslichkeit + Neutralöl auf: 2,5 g ([2]; Lagertemperatur 8 °C): +
Löslichkeit + Neutralöl auf: 2,5 g ([2]; Lagertemperatur 20 °C): +
Löslichkeit + Neutralöl auf: 5 g ([2]; Lagertemperatur 8 °C): +
Löslichkeit + Neutralöl auf: 5 g ([2]; Lagertemperatur 20 °C): +
Löslichkeit + Neutralöl auf: 10 g ([2]; Lagertemperatur 8 °C): +
Löslichkeit + Neutralöl auf: 10 g ([2]; Lagertemperatur 20 °C): +
Löslichkeit + Paraffinöl auf: 5 g ([2]; Lagertemperatur 8 °C): -
Löslichkeit + Paraffinöl auf: 5 g ([2]; Lagertemperatur 20 °C): -
Löslichkeit + Paraffinöl auf: 10 g ([2]; Lagertemperatur 8 °C): -
Löslichkeit + Paraffinöl auf: 10 g ([2]; Lagertemperatur 20 °C): -
Löslichkeit + Wasser auf: 10 g ([2]; Lagertemperatur 8 °C): -
Löslichkeit + Wasser auf: 10 g ([2]; Lagertemperatur 20 °C): -
Löslichkeit + Wasser auf: 20 g ([2]; Lagertemperatur 8 °C): -
Löslichkeit + Wasser auf: 20 g ([2]; Lagertemperatur 20 °C): +
Löslichkeit in Wasser ([3]; bei 20 °C): ca. 0,5 g/L

CC(C)[C@@H]1CC[C@@H](C)C[C@H]1O [L-Menthol]
Löslichkeit + Neutralöl auf: 2,5 g ([2]; Lagertemperatur 8 °C): +
Löslichkeit + Neutralöl auf: 2,5 g ([2]; Lagertemperatur 20 °C): +
Löslichkeit + Neutralöl auf: 5 g ([2]; Lagertemperatur 8 °C): +
Löslichkeit + Neutralöl auf: 5 g ([2]; Lagertemperatur 20 °C): +
Löslichkeit + Neutralöl auf: 10 g ([2]; Lagertemperatur 8 °C): +
Löslichkeit + Neutralöl auf: 10 g ([2]; Lagertemperatur 20 °C): +
Löslichkeit + Paraffinöl auf: 5 g ([2]; Lagertemperatur 8 °C): +
Löslichkeit + Paraffinöl auf: 5 g ([2]; Lagertemperatur 20 °C): +
Löslichkeit + Paraffinöl auf: 10 g ([2]; Lagertemperatur 8 °C): +
Löslichkeit + Paraffinöl auf: 10 g ([2]; Lagertemperatur 20 °C): +
Löslichkeit + Wasser auf: 10 g ([2]; Lagertemperatur 8 °C): -
Löslichkeit + Wasser auf: 10 g ([2]; Lagertemperatur 20 °C): -
Löslichkeit + Wasser auf: 20 g ([2]; Lagertemperatur 8 °C): -
Löslichkeit + Wasser auf: 20 g ([2]; Lagertemperatur 20 °C): -
Löslichkeit in Wasser ([3]; water): 0,355 g/L

Reference: patent EP3062762B1, “STABLE SOLUTIONS CONTAINING A PHYSIOLOGICAL COOLING REAGENT AND USE THEREOF” (priority 2013, dated 2015)
